According to publication PMC10604720, “Unraveling the Mechanism of Epichaperome Modulation by Zelavespib: Biochemical Insights on Target Occupancy and Extended Residence Time at the Site of Action” (Biomedicines, 2023):

Tested on: epichaperomes
Test: Epichaperome determination by native PAGE / SDS-PAGE immunoblotting of MDA-MB-468 tumors
Assay type: in vivo, mouse
Experimental: For epichaperome analysis, tumors were cut into small pieces and homogenized in native lysis buffer (20 mM HEPES pH 7.5, 50 mM KCl, 5 mM MgCl2, 0.01% NP40, 20 mM Na2MoO4) containing protease and phosphatase inhibitors using BioMasher® II Micro Tissue Homogenizers (VWR, Radnor, PA, USA). Samples were left on ice for 30 min and then subjected to native PAGE analysis. Protein concentrations were determined using the BCA kit (Pierce, Waltham, MA, USA) according to the manufacturer’s instructions. Protein lysate (10–60 µg) was loaded onto 5.5% native gel and resolved at 4 °C, transferred to nitrocellulose membrane, and probed with the indicated primary antibodies: HSP90α (AB2928; RRID:AB_303423; 1:8000) from Abcam (Cambridge, UK), HOP (ADI-SRA-1500; RRID:AB_10618972; 1:1000) from Enzo and CDC37 (4793S; RRID:AB_10695539; 1:1000) from Cell Signaling (Danvers, MA, USA). Membranes were then incubated with a 1:5000 dilution of a peroxidase-conjugated corresponding secondary antibody. Detection was performed using the ECL Enhanced Chemiluminescence Detection System (Pierce™ ECL Western Blotting Substrate) according to the manufacturer’s instructions.
In cellular studies, it has been proposed that zelavespib, upon binding, becomes trapped inside the epichaperome assemblies, leading to the disassembly of epichaperomes into individual components. However, this biochemical mechanism’s impact on the residence time of zelavespib at the site of action remains poorly understood in vivo. To investigate this, we analyzed the epichaperome target in tumors at 30 h and 72 h post-zelavespib administration using non-denaturing electrophoresis (native PAGE) (Figure 4a–c).
Figure 4 Epichaperome modulation by zelavespib in MDA-MB-468 tumor-bearing mice. (a) native-PAGE (top) or SDS-PAGE (bottom) followed by immunoblotting of epichaperome components (i.e., constituent chaperones and co-chaperones) in MDA-MB-468 tumors. Tumor-bearing mice were injected with a single dose of 50 mg/kg zelavespib, and tumor analysis was performed after sacrificing the mice at 30 h and 72 h post-zelavespib administration (n = 5 mice per time-point). Gels, representative tumors. To account for tumor heterogeneity (i.e., MDA-MB-468 are aggressive tumors with highly proliferative periphery adjacent to areas of necrosis), several cuts from the same tumor were analyzed when tumor size permitted. β-actin and GAPDH, protein loading controls; black arrowhead, biochemical signature of folding HSP90 pools as detected by native PAGE separation and immunoblotting; red arrowhead, non-specific signal, LE, low exposure; HE, high exposure. (b) Graph, data are presented as means ± s.e.m., n = 7, one-way ANOVA with Dunnett’s post hoc of tumors as in a. Because HSP90 in epichaperomes was not well separated from the folding HSP90 pool, we performed epichaperome quantification using CDC37 in epichaperomes as a surrogate marker. (c) Cartoon showing the proposed biochemical mechanism in vivo. Initially, zelavespib becomes trapped when epichaperomes bound, a mechanism that results in epichaperome disassembly, with no change in the expression level of epichaperome constituents. We propose that the initial trapping stage of epichaperomes is a main contributing factor to the extended on-target residence time observed for this agent in clinical settings. Zelavespib’s residence time in tumors seems to be dictated by target disassembly kinetics rather than by frank drug–target unbinding kinetics.

Q: What does the source list for CC(C)NCCCn1c(Sc2cc3c(cc2I)OCO3)nc2c(N)ncnc21 [zelavespib]?
A: total chaperone levels on SDS-PAGE (30 h post single 50 mg/kg): no corresponding alteration; increase in epichaperome signal on native PAGE compared to baseline (30 h post single 50 mg/kg, CDC37 in epichaperomes as surrogate marker): ~2.29 fold; decrease of epichaperome levels compared to baseline (72 h post single 50 mg/kg): approximately 1.8 fold; total chaperone levels on SDS-PAGE (72 h post single 50 mg/kg): no observable change; decrease in epichaperome signal on native PAGE compared to 30 h (72 h post single 50 mg/kg, CDC37 in epichaperomes as surrogate marker): approximately 4.15 fold; baseline epichaperome target remaining in tumors (72 h post-zelavespib administration): approximately 24.09%
